Measured values: ChEMBL document CHEMBL1201862, “PubChem BioAssay data set” (2004)
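All cell lines were grown in 96-well plates and treated with compound for 48 hours. Abbreviation: GI50, concentration required for 50% inhibition of growth.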 The source made the active and inactive calls. Rule as the data show it: active = GI50 up to about 1.1 µM and inactive = higher.

Legend:
Assay in all cases: DTP human tumour cell line panel, 48 h
A498 = system: A498
CCRF-CEM = system: CCRF-CEM
COLO 205 = system: COLO 205
HCT-116 = system: HCT-116
HOP-62 = system: HOP-62
HT-29 = system: HT-29
IGROV-1 = system: IGROV-1
KM12 = system: KM12
MOLT-4 = system: MOLT-4
NCI-H23 = system: NCI-H23
NCI-H522 = system: NCI-H522
OVCAR-3 = system: OVCAR-3
RXF 393 = system: RXF 393
SF-295 = system: SF-295
SF-539 = system: SF-539
SK-MEL-2 = system: SK-MEL-2
SNB-19 = system: SNB-19
SNB-75 = system: SNB-75
UACC-62 = system: UACC-62
UO-31 = system: UO-31

| Structure (SMILES) | GI50 (A498) | GI50 (CCRF-CEM) | GI50 (COLO 205) | GI50 (HCT-116) | GI50 (HOP-62) | GI50 (HT-29) | GI50 (IGROV-1) | GI50 (KM12) | GI50 (MOLT-4) | GI50 (NCI-H23) | GI50 (NCI-H522) | GI50 (OVCAR-3) | GI50 (RXF 393) | GI50 (SF-295) | GI50 (SF-539) | GI50 (SK-MEL-2) | GI50 (SNB-19) | GI50 (SNB-75) | GI50 (UACC-62) | GI50 (UO-31) |
| --- | --- | --- | --- | --- | --- | --- | --- | --- | --- | --- | --- | --- | --- | --- | --- | --- | --- | --- | --- | --- |
| [N-]=[N+]=CC(=O)OCC(N)C(=O)O (configuration not stated) | 0.764 µM (active) | 0.222 µM (active) | 0.269 µM (active) | 0.403 µM (active) | 0.582 µM (active) | 0.177 µM (active) | 1.15 µM (inactive) | 0.406 µM (active) | 0.216 µM (active) | 1.04 µM (active) | 0.54 µM (active) | 0.841 µM (active) | 15.7 µM (inactive) | 0.923 µM (active) | 0.13 µM (active) | 3.28 µM (inactive) | 2.88 µM (inactive) | 21.3 µM (inactive) | 1.19 µM (inactive) | 2.61 µM (inactive) |
| CCOC(=O)c1ccc(N[C@@H]2c3cc4c(cc3C(c3cc(OC)c(O)c(OC)c3)[C@H]3C(=O)OCC32)OCO4)cc1O (some centres not stated) | 0.607 µM (active) | 0.211 µM (active) | 1.18 µM (inactive) | 0.505 µM (active) | 0.306 µM (active) | 0.546 µM (active) | 2.68 µM (inactive) | 0.579 µM (active) | 0.0207 µM (active) | 0.9 µM (active) | 0.665 µM (active) | 2.43 µM (inactive) | 1.88 µM (inactive) | 0.498 µM (active) | 0.685 µM (active) | 0.809 µM (active) | 0.652 µM (active) | 0.548 µM (active) | 0.469 µM (active) | 0.34 µM (active) |
| O=C(O)c1cc2c3c(c1)[C@H]1C=CC[C@H]1CN3CC1CC=CC21 (some centres not stated) | > 100 µM (inactive) | > 100 µM (inactive) | > 100 µM (inactive) | > 100 µM (inactive) | > 100 µM (inactive) | > 100 µM (inactive) | > 100 µM (inactive) | > 100 µM (inactive) | > 100 µM (inactive) | > 100 µM (inactive) | > 100 µM (inactive) | > 100 µM (inactive) | > 100 µM (inactive) | > 100 µM (inactive) | > 100 µM (inactive) | > 100 µM (inactive) | > 100 µM (inactive) | > 100 µM (inactive) | > 100 µM (inactive) | > 100 µM (inactive) |
| CC(=O)OCC1OC(n2cc(F)c(=O)[nH]c2=O)C(NC(=O)OCc2ccccc2)C(OC(C)=O)C1OC(C)=O (configuration not stated) | > 100 µM (inactive) | > 100 µM (inactive) | – | > 100 µM (inactive) | > 100 µM (inactive) | > 100 µM (inactive) | > 100 µM (inactive) | > 100 µM (inactive) | > 100 µM (inactive) | > 100 µM (inactive) | > 95.3 µM (inactive) | > 100 µM (inactive) | > 100 µM (inactive) | > 100 µM (inactive) | > 100 µM (inactive) | > 100 µM (inactive) | > 100 µM (inactive) | > 100 µM (inactive) | > 100 µM (inactive) | > 100 µM (inactive) |
| Cc1sc(N)c(S(=O)(=O)c2ccccc2)c1C | > 100 µM (inactive) | > 100 µM (inactive) | > 100 µM (inactive) | > 100 µM (inactive) | – | > 100 µM (inactive) | > 100 µM (inactive) | > 100 µM (inactive) | > 100 µM (inactive) | > 100 µM (inactive) | > 100 µM (inactive) | 80.5 µM (inactive) | > 100 µM (inactive) | > 100 µM (inactive) | 5.13 µM (inactive) | > 100 µM (inactive) | > 100 µM (inactive) | > 100 µM (inactive) | > 100 µM (inactive) | > 100 µM (inactive) |
| CCCCCCCCCCC(C)CCCCCCC(=O)O (configuration not stated) | > 100 µM (inactive) | > 100 µM (inactive) | > 100 µM (inactive) | > 100 µM (inactive) | > 100 µM (inactive) | > 100 µM (inactive) | > 100 µM (inactive) | > 100 µM (inactive) | > 100 µM (inactive) | > 100 µM (inactive) | > 100 µM (inactive) | > 100 µM (inactive) | > 100 µM (inactive) | > 100 µM (inactive) | > 100 µM (inactive) | > 100 µM (inactive) | > 100 µM (inactive) | > 100 µM (inactive) | > 100 µM (inactive) | > 100 µM (inactive) |
| CCCCCC1CC(C(C)=O)CN1c1ccc(F)cc1 (configuration not stated) | 77.6 µM (inactive) | – | 48.1 µM (inactive) | 27.1 µM (inactive) | – | 30.8 µM (inactive) | – | 35.6 µM (inactive) | – | 24.8 µM (inactive) | 21.2 µM (inactive) | 28.1 µM (inactive) | 41 µM (inactive) | 21.2 µM (inactive) | > 100 µM (inactive) | 38.9 µM (inactive) | > 10 µM (inactive) | 25.5 µM (inactive) | – | 37.4 µM (inactive) |
| Cc1ccc(-c2c(C#N)c(-c3ccc([N+](=O)[O-])cc3)c(C#N)c(=O)n2NS(=O)(=O)c2ccccc2)cc1 | 57.7 µM (inactive) | 19 µM (inactive) | 53.1 µM (inactive) | 31.7 µM (inactive) | 30.1 µM (inactive) | 41.8 µM (inactive) | 30.9 µM (inactive) | 31.6 µM (inactive) | 18.9 µM (inactive) | – | 28.6 µM (inactive) | – | 29.4 µM (inactive) | 27.8 µM (inactive) | 32.3 µM (inactive) | 44 µM (inactive) | 42.6 µM (inactive) | 28.4 µM (inactive) | 20.9 µM (inactive) | – |
| CC1C(O)C2(Oc3cc4c(c5c3[C@@H](CC5O)[C@H]2C)CCC2Cc3nc5c(nc3C[C@@]42C)CC2CCC3C4=C[C@H]6O[C@@]7(O[C@@](C)(CO)C[C@@H]7O)C(C)[C@@]6(O)[C@]4(C)[C@@H](O)CC3[C@]2(C)C5)OC1(C)C (some centres not stated) | 0.0652 µM (active) | 0.0582 µM (active) | 0.152 µM (active) | 0.12 µM (active) | 0.0715 µM (active) | 0.0977 µM (active) | 0.128 µM (active) | 0.241 µM (active) | – | 0.114 µM (active) | 0.123 µM (active) | 0.0891 µM (active) | 0.0269 µM (active) | 0.00531 µM (active) | 0.078 µM (active) | 0.114 µM (active) | – | 0.00543 µM (active) | 0.0877 µM (active) | 1.08 µM (active) |
| O=C(Nc1cccc(C(F)(F)F)c1)C(=O)C(C(=O)c1ccc(Cl)c(Cl)c1)C1OC(=O)c2ccccc21 (configuration not stated) | 21.4 µM (inactive) | 28.4 µM (inactive) | 41.2 µM (inactive) | 17.5 µM (inactive) | 28.3 µM (inactive) | 29.2 µM (inactive) | 39.6 µM (inactive) | 47.2 µM (inactive) | 48.9 µM (inactive) | 27.4 µM (inactive) | 28.8 µM (inactive) | 32.1 µM (inactive) | 14.7 µM (inactive) | – | – | – | 37.8 µM (inactive) | 22.7 µM (inactive) | 28.6 µM (inactive) | 55.1 µM (inactive) |
| O=C(O)c1nc2ccc(C(F)(F)F)cc2[nH]c1=O | > 100 µM (inactive) | > 100 µM (inactive) | > 100 µM (inactive) | > 100 µM (inactive) | > 100 µM (inactive) | > 100 µM (inactive) | > 100 µM (inactive) | > 100 µM (inactive) | > 100 µM (inactive) | > 100 µM (inactive) | > 100 µM (inactive) | > 100 µM (inactive) | > 100 µM (inactive) | > 100 µM (inactive) | > 100 µM (inactive) | > 100 µM (inactive) | > 100 µM (inactive) | – | > 100 µM (inactive) | > 100 µM (inactive) |
| COC(=O)c1c(-c2ccccc2)c2sc3ccccc3n2c1N | 30.5 µM (inactive) | 52.4 µM (inactive) | 28.2 µM (inactive) | 28.6 µM (inactive) | 31.5 µM (inactive) | 49.7 µM (inactive) | 58.6 µM (inactive) | 26.1 µM (inactive) | – | 72.1 µM (inactive) | 24.2 µM (inactive) | 48.9 µM (inactive) | 19.4 µM (inactive) | 34.1 µM (inactive) | 28.1 µM (inactive) | 32.9 µM (inactive) | 74.3 µM (inactive) | 56.1 µM (inactive) | > 100 µM (inactive) | 85.9 µM (inactive) |
| O=c1cc(N2CCCC2)[nH]c(=O)n1-c1cccc(C(F)(F)F)c1 | > 100 µM (inactive) | > 100 µM (inactive) | > 100 µM (inactive) | > 100 µM (inactive) | > 100 µM (inactive) | > 100 µM (inactive) | > 100 µM (inactive) | > 100 µM (inactive) | > 100 µM (inactive) | > 100 µM (inactive) | > 100 µM (inactive) | > 100 µM (inactive) | > 100 µM (inactive) | > 100 µM (inactive) | > 100 µM (inactive) | > 100 µM (inactive) | > 100 µM (inactive) | > 100 µM (inactive) | > 100 µM (inactive) | – |
| COc1ccc(/C=N/NC(=O)NCCCN(C)C)cc1 | > 100 µM (inactive) | > 100 µM (inactive) | – | > 100 µM (inactive) | – | > 100 µM (inactive) | > 100 µM (inactive) | > 100 µM (inactive) | > 100 µM (inactive) | > 100 µM (inactive) | > 100 µM (inactive) | > 100 µM (inactive) | > 100 µM (inactive) | > 100 µM (inactive) | > 100 µM (inactive) | > 100 µM (inactive) | > 100 µM (inactive) | – | > 100 µM (inactive) | > 100 µM (inactive) |
| Nc1nc(Cl)cc(NCCCCCCCCCCCCNc2cc(Cl)nc(N)n2)n1 | 12.9 µM (inactive) | 1.69 µM (inactive) | 19.9 µM (inactive) | 0.832 µM (active) | 12.2 µM (inactive) | 10.5 µM (inactive) | 15.8 µM (inactive) | 83 µM (inactive) | 1.33 µM (inactive) | 0.0136 µM (active) | – | 11.1 µM (inactive) | 9.75 µM (inactive) | 1.41 µM (inactive) | 15.2 µM (inactive) | 34.4 µM (inactive) | – | 8.53 µM (inactive) | 6.84 µM (inactive) | 31.7 µM (inactive) |
